Results: patent US9751854B2 (Millennium Pharmaceuticals, Inc., priority 2014, dated 2017)
Like-named read-outs stand apart in the source and are kept apart here.

Biological target: human VPS34 (Homo sapiens (Human), UniProt Q8NEB9)
Experiment: Human VPS34 enzyme assay (Adapta TR-FRET ADP detection)
Type: biochemical

human VPS34, sequence (Q8NEB9 whole entry): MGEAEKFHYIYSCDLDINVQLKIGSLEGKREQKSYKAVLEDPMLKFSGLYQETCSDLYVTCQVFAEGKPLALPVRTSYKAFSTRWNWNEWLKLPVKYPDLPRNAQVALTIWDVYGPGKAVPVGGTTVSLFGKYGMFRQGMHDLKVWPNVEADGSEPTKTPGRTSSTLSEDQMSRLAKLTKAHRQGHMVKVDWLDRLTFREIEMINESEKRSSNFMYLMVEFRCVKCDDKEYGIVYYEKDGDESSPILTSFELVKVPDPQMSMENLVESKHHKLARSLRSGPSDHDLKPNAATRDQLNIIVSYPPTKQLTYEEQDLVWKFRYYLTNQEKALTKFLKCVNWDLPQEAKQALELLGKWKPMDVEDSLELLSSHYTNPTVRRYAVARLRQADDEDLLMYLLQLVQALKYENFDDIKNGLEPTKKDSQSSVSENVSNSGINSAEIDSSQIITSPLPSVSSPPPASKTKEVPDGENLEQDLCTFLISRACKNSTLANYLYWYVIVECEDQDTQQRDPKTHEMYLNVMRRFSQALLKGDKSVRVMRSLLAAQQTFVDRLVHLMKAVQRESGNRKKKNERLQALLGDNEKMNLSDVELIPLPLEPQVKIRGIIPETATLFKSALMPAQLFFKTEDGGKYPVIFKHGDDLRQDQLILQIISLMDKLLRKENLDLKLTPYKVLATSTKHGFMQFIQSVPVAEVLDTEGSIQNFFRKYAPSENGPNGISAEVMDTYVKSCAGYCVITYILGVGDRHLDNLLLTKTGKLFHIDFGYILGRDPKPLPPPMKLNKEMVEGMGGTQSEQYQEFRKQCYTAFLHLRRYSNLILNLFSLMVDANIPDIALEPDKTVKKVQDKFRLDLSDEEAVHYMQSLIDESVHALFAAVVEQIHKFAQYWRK

| Compound | IC50 (IC50 range class) | IC50 | Percent Inhibition |
| --- | --- | --- | --- |
| CC(=O)Nc1cc(-c2cncc(C(=O)/C=C/c3ccc(F)cc3)c2)ccn1 [Compound I-198, N-[5-[(2E)-3-(4-fluorophenyl)prop-2-enoyl]-3,4′-bipyridin-2′-yl}acetamide] | > 0.1 µM | – | – |
| CC(=O)Nc1cc(-c2cncc(N(CC3CC3)S(C)(=O)=O)c2)ccn1 [Compound I-202, N-{5-[(cyclopropylmethyl)(methylsulfonyl)amino]-3,4′-bipyridin-2′-yl}acetamide] | 0.05 to 0.1 µM | – | – |
| CC(=O)Nc1cc(-c2cnc(N)c(S(=O)(=O)CC3CC3)c2)ccn1 [Compound I-208] | – | 0.01 to 0.05 µM | >99% |
| CC(=O)Nc1cc(-c2cnc3[nH]ncc3c2)c(C)cn1 [Compound I-209, N-[5-methyl-4-(1H-pyrazolo[3,4-b]pyridin-5-yl)pyridin-2-yl]acetamide] | > 0.1 µM | – | – |
| CC(=O)Nc1cc(-c2cnc(N)c(C(=O)NC3CCOCC3)c2)ccn1 [Compound I-210, 2′-acetamido-6-amino-N-(tetrahydro-2H-pyran-4-yl)-3,4′-bipyridine-5-carboxamide] | 0.05 to 0.1 µM | – | – |
| CC(=O)Nc1cc(-c2cnc(C)c(N(C)S(=O)(=O)C3CC3)c2)ccn1 [Compound I-212, N-{5-[(cyclopropylsulfonyl)(methyl)amino]-6-methyl-3,4′-bipyridin-2′-yl}acetamide] | 0.05 to 0.1 µM | – | – |
| CC(=O)Nc1cc(-c2cnc(Cl)c(C(=O)N(C)C)c2)ccn1 [Compound I-213, 2′-acetamido-6-chloro-N,N-dimethyl-3,4′-bipyridine-5-carboxamide] | 0.05 to 0.1 µM | – | – |
| N=C(N)NC(=O)c1cc(-c2ccnc(Nc3ccncn3)c2)cnc1N [Compound I-216, 6-Amino-N-carbamimidoyl-2′-(pyrimidin-4-ylamino)-3,4′-bipyridine-5-carboxamide] | 0.05 to 0.1 µM | – | – |
| Cc1cc(Nc2cc(-c3cnc(Cl)c(NS(=O)(=O)c4ccc(F)cc4F)c3C)ccn2)nc(C)n1 [Compound I-218, N-{6-chloro-2′-[(2,6-dimethylpyrimidin-4-yl)amino]-4-methyl-3,4′-bipyridin-5-yl}-2,4-difluorobenzenesulfonamide] | 0.01 to 0.05 µM | – | >99% |
| CC(=O)Nc1cc(-c2cnc(C)c(NS(=O)(=O)c3ccc(F)cc3F)c2)cc[n+]1[O-] [Compound I-219, N-[4-(5-{[(2,4-difluorophenyl)sulfonyl]amino}-6-methylpyridin-3-yl)-1-oxidopyridin-2-yl]acetamide] | 0.05 to 0.1 µM | – | – |
| COc1nccc(Nc2cc(-c3cnc(N)c(C(=O)N(C)C45CC(C4)C5)c3)ccn2)n1 [Compound I-230, 6-amino-N-(bicyclo[1.1.1]pent-1-yl)-2′-((2-methoxypyrimidin-4-yl)amino)-N-methyl-[3,4′-bipyridine]-5-carboxamide] | 0.01 to 0.05 µM | – | – |
| Nc1cncc(-c2ccnc(N)c2)c1 [Compound I-231, 3,4′-bipyridine-2′,5-diamine] | > 0.1 µM | – | – |
| Cc1nccc(Nc2cc(-c3cnc(Cl)c(C(=O)N4CCC4)c3)ccn2)n1 [Compound I-232, azetidin-1-yl[6-chloro-2′-[(2-methylpyrimidin-4-yl)amino]-3,4′-bipyridin-5-yl}methanone] | 0.01 to 0.05 µM | – | – |
| Cc1ncc(-c2ccnc(Nc3nc4ccccc4o3)c2)cc1NS(=O)(=O)c1ccc(F)cc1F [Compound I-233, N-[2′-(1,3-benzoxazol-2-ylamino)-6-methyl-3,4′-bipyridin-5-yl}2,4-difluorobenzenesulfonamide] | 0.01 to 0.05 µM | – | – |
| Cc1nccc(Nc2cc(-c3cncc(C(=O)N(C)C45CC(C4)C5)c3)ccn2)n1 [Compound I-234, N-(bicyclo[1.1.1]pent-1-yl)-N-methyl-2′-[(2-methylpyrimidin-4-yl)amino]-3,4′-bipyridine-5-carboxamide] | 0.01 to 0.05 µM | – | – |
| Cc1ccc2ccc(Nc3cc(-c4cnc(C)c(NS(=O)(=O)c5ccc(F)cc5F)c4)ccn3)nc2n1 [Compound I-235, 2,4-difluoro-N-{6-methyl-2′-[(7-methyl-1,8-naphthyridin-2-yl)amino]-3,4′-bipyridin-5-yl}benzenesulfonamide] | 0.01 to 0.05 µM | – | – |
| CC(=O)Nc1cc(-c2cnc(Cl)c(NS(=O)(=O)N(C)C)c2C)ccn1 [Compound I-236, N-{6-chloro-5-[(dimethylsulfamoyl)amino]-4-methyl-3,4′-bipyridin-2′-yl}acetamide] | 0.01 to 0.05 µM | – | – |

More lines, main results first:

| IC50 (IC50 range class) | Compound | IC50 | Percent Inhibition |
| --- | --- | --- | --- |
| < 0.01 µM | CC(=O)Nc1cc(-c2cnc(C)c(NS(=O)(=O)c3ccc(C(F)(F)F)cc3Cl)c2)ccn1 [Compound I-196, N-[5-({[2-chloro-4-(trifluoromethyl)phenyl]sulfonyl}amino)-6-methyl-3,4′-bipyridin-2′-yl]acetamide] | – | – |
| 0.01 to 0.05 µM | CC(=O)Nc1cc(-c2cnc(N)c(S(=O)(=O)Cc3ccccc3F)c2)ccn1 [Compound I-197, N-{6-amino-5-[(2-fluorobenzyl)sulfonyl]-3,4′-bipyridin-2′-yl]acetamide] | – | – |
| < 0.01 µM | CC(=O)Nc1cc(-c2cnc3ccn(S(=O)(=O)C4CC4)c3c2)ccn1 [Compound I-199, N-{4-[1-(cyclopropylsulfonyl)-1H-pyrrolo[3,2-b]pyridin-6-yl]pyridin-2-yl}acetamide] | – | – |
| < 0.01 µM | CC(=O)Nc1cc(-c2cnc(N)c(C(=O)N3CCC3)c2)ccn1 [Compound I-200, N-[6-amino-5-(azetidin-1-ylcarbonyl)-3,4′-bipyridin-2′-yl]acetamide] | – | – |
| < 0.01 µM | CCc1ncc(-c2ccnc(NC(C)=O)c2)cc1NS(=O)(=O)c1ccc(F)cc1F [Compound I-201, N-(5-{[(2,4-difluorophenyl)sulfonyl]amino}-6-ethyl-3,4′-bipyridin-2′-yl)acetamide] | – | – |
| < 0.01 µM | CC(=O)Nc1cc(-c2cnc(C)c(NS(=O)(=O)c3ccsc3)c2)ccn1 [Compound I-203, N-{6-methyl-5-[(3-thienylsulfonyl)amino]-3,4′-bipyridin-2′-yl}acetamide] | – | – |
| < 0.01 µM | CC(=O)Nc1cc(-c2cnc(N)c(S(=O)(=O)Nc3cccnc3)c2)ccn1 [Compound I-204, N-[6-amino-5-(pyridin-3-ylsulfamoyl)-3,4′-bipyridin-2′-yl]acetamide] | – | – |
| 0.01 to 0.05 µM | CC(=O)Nc1cc(-c2cnc(N)c(S(=O)(=O)Cc3cccnc3)c2)ccn1 [Compound I-205, N-{6-amino-5-[(pyridin-3-ylmethyl)sulfonyl]-3,4′-bipyridin-2′-yl}acetamide] | – | – |
| < 0.01 µM | CC(=O)Nc1cc(-c2cnc(C)c(NS(=O)(=O)c3ccc(F)cc3Cl)c2)ccn1 [Compound I-206, N-(5-{[(2-chloro-4-fluorophenyl)sulfonyl]amino}-6-methyl-3,4′-bipyridin-2′-yl)acetamide] | – | – |
| < 0.01 µM | CC(=O)Nc1cc(-c2cnc(N)c(S(=O)(=O)Nc3ccc(Cl)cc3)c2)ccn1 [Compound I-207, N-{6-amino-5-[(4-chlorophenyl)sulfamoyl]-3,4′-bipyridin-2′-yl}acetamide] | – | – |
| < 0.01 µM | CC(=O)Nc1cc(-c2cnc(C)c(NS(=O)(=O)c3ccccc3C)c2)ccn1 [Compound I-211, N-(6-methyl-5-{[(2-methylphenyl)sulfonyl]amino}-3,4′-bipyridin-2′-yl)acetamide] | – | – |
| < 0.01 µM | CC(=O)Nc1cc(-c2cnc(C)c(NS(=O)(=O)N3CCCCC3)c2)ccn1 [Compound I-214, N-{6-methyl-5-[(piperidin-1-ylsulfonyl)amino]-3,4′-bipyridin-2′-yl}acetamide] | – | – |
| 0.01 to 0.05 µM | Cc1nccc(Nc2cc(-c3cnc(Cl)c(S(=O)(=O)NC4CCC4)c3)ccn2)n1 [Compound I-215, 6-chloro-N-cyclobutyl-2′-((2-methylpyrimidin-4-yl)amino)-[3,4′-bipyridine]-5-sulfonamide] | – | – |
| 0.01 to 0.05 µM | COc1ncc(-c2ccnc(NC(C)=O)c2)cc1NS(=O)(=O)N(C)C [Compound I-220, N-{5-[(dimethylsulfamoyl)amino]-6-methoxy-3,4′-bipyridin-2′-yl}acetamide] | – | – |
| 0.01 to 0.05 µM | Cc1nccc(Nc2cc(-c3cnc(C)c(C(=O)N4CC(F)(F)C4)c3)ccn2)n1 [Compound I-221, (3,3-difluoroazetidin-1-yl){6-methyl-2′-[(2-methylpyrimidin-4-yl)amino]-3,4′-bipyridin-5-yl]methanone] | – | – |
| 0.01 to 0.05 µM | CNc1ncc(-c2ccnc(Nc3ccncn3)c2)cc1C(=O)N(C)C12CC(C1)C2 [Compound I-222, N-(bicyclo[1.1.1]pent-1-yl)-N-methyl-6-(methylamino)-2′-(pyrimidin-4-ylamino)-3,4′-bipyridine-5-carboxamide] | – | – |
| 0.01 to 0.05 µM | Cc1nccc(Nc2cc(-c3cnc(C)c(C(=S)N4CCC4)c3)ccn2)n1 [Compound I-223, Azetidin-1-yl{6-methyl-2′-[(2-methylpyrimidin-4-yl)amino]-3,4′-bipyridin-5-yl}methanethione] | – | – |
| 0.01 to 0.05 µM | COc1ncc(-c2ccnc(Nc3ccnc(C)n3)c2)cc1S(=O)(=O)NC1CCC1 [Compound I-224, N-cyclobutyl-6-methoxy-2′-[(2-methylpyrimidin-4-yl)amino]-3,4′-bipyridine-5-sulfonamide] | – | – |
| < 0.01 µM | COc1nccc(Nc2cc(-c3cnc(Cl)c(NS(=O)(=O)c4ccc(F)cc4F)c3C)ccn2)n1 [Compound I-225, N-{6-chloro-2′-[(2-methoxypyrimidin-4-yl)amino]-4-methyl-3,4′-bipyridin-5-yl}-2,4-difluorobenzenesulfonamide] | – | – |
| 0.01 to 0.05 µM | Cc1nccc(Nc2cc(-c3cnc(Cl)c(N)c3C)ccn2)n1 [Compound I-226, 6-chloro-4-methyl-N-2′-(2-methylpyrimidin-4-yl)-3,4′-bipyridine-2′,5-diamine] | – | – |
| 0.01 to 0.05 µM | CC(=O)Nc1cc(-c2cnc(Cl)c(NS(=O)(=O)c3cc(F)ccc3F)c2C)ccn1 [Compound I-227, N-(6-chloro-5-{[(2,5-difluorophenyl)sulfonyl]amino)-4-methyl-3,4′-bipyridin-2′-yl)acetamide] | – | – |
| < 0.01 µM | Cc1ncc(-c2ccnc(Nc3ccc(C#N)cn3)c2)cc1NS(=O)(=O)c1ccc(F)cc1F [Compound I-228, N-{2′-[(5-cyanopyridin-2-yl)amino]-6-methyl-3,4′-bipyridin-5-yl}-2,4-difluorobenzenesulfonamide] | – | – |
| < 0.01 µM | Cc1nc(Nc2cc(-c3cnc(C)c(NS(=O)(=O)N(C)C)c3)ccn2)ccc1C#N [Compound I-229, N-{2′-[(5-cyano-6-methylpyridin-2-yl)amino]-6-methyl-3,4′-bipyridin-5-yl}-N,N-dimethylsulfuric diamide] | – | – |
